According to the NIST ThermoML archive (doi:10.1021/je700755t):

Key:
[1] = 101 kPa, Liquid; for viscosity: Capillary tube (Ostwald / Ubbelohde) method
[2] = xn = mol fraction of the nth substance listed; conditions: 101 kPa, Liquid, x2 = 0; for viscosity: Capillary tube (Ostwald / Ubbelohde) method

CC(=O)O [acetic acid]
[1]
Conditions | mass density [kg/m3] | viscosity [mPa·s]
303.15 K | 1038.66 | 1.059
313.15 K | 1027.37 | 0.92
323.15 K | 1016.08 | 0.804
333.15 K | 1005.04 | 0.709
343.15 K | 993.69 | 0.632
353.15 K | 982.95 | 0.57

CN(C)C=O [dimethylformamide]
[1]
Conditions | mass density [kg/m3] | viscosity [mPa·s]
303.15 K | 939.45 | 0.76
313.15 K | 929.86 | 0.675
323.15 K | 920.92 | 0.608
333.15 K | 910.64 | 0.552
343.15 K | 901.72 | 0.502
353.15 K | 891.44 | 0.46

CN(C)C=O [dimethylformamide] + CC(=O)O
[2]
Conditions | mass density [kg/m3] | viscosity [mPa·s]
303.15 K | 939.45 | 0.76
313.15 K | 929.86 | 0.675
323.15 K | 920.92 | 0.608
333.15 K | 910.64 | 0.552
343.15 K | 901.72 | 0.502
353.15 K | 891.44 | 0.46

CN(C)C=O [dimethylformamide] + O=CO
[2]
Conditions | mass density [kg/m3] | viscosity [mPa·s]
303.15 K | 939.45 | 0.76
313.15 K | 929.86 | 0.675
323.15 K | 920.92 | 0.608
333.15 K | 910.64 | 0.552
343.15 K | 901.72 | 0.502
353.15 K | 891.44 | 0.46

O=CO [formic acid]
[1]
Conditions | mass density [kg/m3] | viscosity [mPa·s]
303.15 K | 1205.07 | 1.437
313.15 K | 1192.81 | 1.205
323.15 K | 1180.63 | 1.022
333.15 K | 1167.44 | 0.879
343.15 K | 1154.99 | 0.766
353.15 K | 1142.08 | 0.677
